Where two headings read alike, the source gives them in different places.

Series [1] can be described thus: In vivo pharmacokinetics of lisinopril, pump versus subcutaneous injection. To be noted: for Cmax: plasma, read-out: maximum plasma concentration (Cmax). Here is the method: The time taken to reach the Cmax (Tmax) was 30 min in both groups. […] Drug leakage in the implanted pump was not detected during the non-actuation periods over a 28-day period.
Series [2] is described as follows: Stability of drug formulation stored in the pump at 37° C. It is filed as physicochemical. To be noted: stored in the pump at 37° C. for 4 weeks.

As to `NCCCC[C@H](N[C@@H](CCc1ccccc1)C(=O)O)C(=O)N1CCC[C@H]1C(=O)O` [lisinopril], the Cmax in series [1] (other: implanted pump, Pump-lisinopril group) came to 394 ± 83.2 ng/mL; in series [1] (sc, Inj-lisinopril group (subcutaneous injection)), 323 ± 64.7 ng/mL. The results for the “area under the curve of plasma lisinopril concentration versus time (AUC)” value in series [1] (pump group) and in series [1] (subcutaneous injection group) were 25335.5 ± 7640.9 ng·min/mL and 24484.5 ± 5643.8 ng·min/mL, respectively.
With `CC(C)C[C@H]1C(=O)N2CCC[C@H]2[C@]2(O)O[C@](NC(=O)[C@@H]3C=C4c5cccc6[nH]c(Br)c(c56)C[C@H]4N(C)C3)(C(C)C)C(=O)N12` [bromocriptine], in series [2], the “stability of formulation in the pump” value is on record as “stable without apparent denaturation”.

These data come from patent US20230001083A1, “ACTUATABLE DEVICE FOR PULSATILE DRUG DELIVERY” (Massachusetts Institute of Technology, priority 2019, published 2023).
